# Reference: patent publication US11459315B2, “Modulators of methyl modifying enzymes, compositions and uses thereof” (Constellation Pharmaceuticals, Inc., priority 2017, dated 2022)
# Read-outs that look alike come from different tables or passages of the source.
# What was measured:
# [1] = target: PRC2 containing wt EZH2 (Homo sapiens (Human), UniProt Q15910); test: EZH2 biochemical assay (IC50), 3H-SAM incorporation into biotinylated H3 peptide
# Experimental: EZH2 biochemical assay (IC50): Compound potencies were assessed through incorporation of ^3H-SAM into a biotinylated H3 peptide. Specifically, 30 pM PRC2 containing wt EZH2 (pentameric complex prepared in-house) was pre-incubated with 450 nM SAM, 450 nM ^3H-SAM, 2 μM H3K27me3 activating peptide (H2N-[…](Kme3)[…]-amide) and compounds (as 10 point duplicate dose response titrations in DMSO, final assay 0.8% DMSO (v/v)) for 3-5 h in 50 mM Tris (pH 8.5), 1 mM DTT, 0.07 mM Brij-35, 0.1% BSA, and 0.8% DMSO in a total volume of 12.5 μl. Reaction was initiated with biotinylated H3 substrate peptide (H2N-[…](Kme1)[…]-NTPEGBiot) as a 2 μM stock in 12.5 μl of buffer and allowed to react at room temperature for 18-22 h. Quenching was accomplished by addition of 20 μl of STOP solution (50 mM Tris (pH 8.5), 200 mM EDTA, 2 mM SAH). 35 μl of the quenched solution was transferred to streptavidin coated FlashPlates (PerkinElmer), incubated 1-2 h, washed, and read in a TopCount Reader (PerkinElmer). IC50s were calculated in Genedata Screener using non-linear least square four parameter fits, where the four parameters were IC50, Hill slope, pre-transitional baseline (0% INH), and post-transitional baseline (100% INH).
# IC50 values are reported as follows: “A” indicates an IC50 value of less than 0.5 nM; “B” indicates an IC50 value of 0.5 nM to 5 nM; “C” indicates an IC50 value of greater than 5 nM for each enzyme; and “ND” is not determined.
# [2] = test system: H3K27me3 mark in HeLa cells (EZH2); test: H3K27me3 Alpha Hela Assay (AlphaLISA); format: cell-based; settings: HeLa cells, 72 hrs, read-out: EZH2 Cell H3K27me3 Alpha HeLa (EC50 K27me3)
# Experimental: H3K27me3 Alpha Hela Assay (AlphaLISA). Ten different doses of each test compound (in a series of 3-fold dilutions) were plated in duplicate 384-well tissue culture treated plates (Catalog #6007680; Perkin Elmer, Waltham, Mass.). Hela cells grown in culture were trypsinized and counted using a Countess® cell counter (Catalog #C10281; Life Technologies, Grand Island, N.Y.). Cell were diluted to 67,000 cells per mL in 10% DMEM (Catalog #10569-010 Life Technologies, Grand Island, N.Y.) and 15 μL (1,000 cells) were plated into each well using the Biotek MicroFlo™ Select Dispenser (BioTek Instruments, Inc. Vermont, USA),) of the 384-well plate. Plates were incubated at 37° C./5% CO2 for 72 hrs. One of the duplicate plates was processed for HeLa assay and the other for viability.
# 5 μL of Cell-Histone Lysis buffer (1×) (Catalog #AL009F1 Perkin Elmer; Waltham, Mass.) per well was added to the plate processed for AlphaLISA and the plate was incubated at RT for 30 minutes on a plate shaker with low speed (Model #4625-Q Thermo Scientific; Waltham, Mass.). Then, 10 μL per well Histone Extraction buffer (catalog #AL009F2; Perkin Elmer; Waltham, Mass.) was added and the plate further incubated at RT for 20 min on plate shaker with low speed. Next, 10 μL of 5× mix of anti-K27me3 acceptor beads plus Biotinylated anti-Histone H3 (C-ter) Antibody (diluted to 3 nM final) (Catalog #AL118 Perkin Elmer; Waltham, Mass.) was added in each well. Dilution of the acceptor beads and anti-Histone H3 was done in 1× Histone Detection buffer (Catalog #AL009F3 Perkin Elmer; Waltham, Mass.) which was produced by diluting the 10× stock provided. The plate was sealed with an aluminum plate sealer and incubated at 23° C. for 60 min. Next, 10 μL 5× solution of Streptavidin Donor beads were added (Catalog #6760002 Perkin Elmer; Waltham, Mass.) (20 μg/mL final in 1× Histone Detection Buffer), =plate was sealed with Aluminum plate sealer and incubated at 23° C. for 30 min. The plates were then read using an EnVision-Alpha Reader (model #2104 Perkin Elmer; Waltham, Mass.).
# Data from both assays was analyzed using Genedata (Basel, Switzerland). Data files were imported to Genedata and assay conditions were specified. A unique Analysis ID was created and the data files analysed to measure dose-dependent inhibition of H3K27me3 mark and cell viability respectively. Readout of DMSO wells were used to normalize the data. Resulting curves were fitted using Smart fit application (Genedata; Basel, Switzerland). The data was checked for quality, validated and integrated in excel format using Stardrop (Optibruim, Cambridge, UK).
# EC50 values are reported as follows: “A” indicates an EC50 value of less than 10 nM; “B” indicates an EC50 value of 10 nM to 100 nM; “C” indicates an EC50 value of greater than 100 nM; and “ND” is not determined.
# [3] = EZH2 (IC50), 30 pM PRC2 containing wt EZH2; 3-5 h pre-incubation
# [4] = 30 pM PRC2 containing wt EZH2; 3-5 h pre-incubation; read-out: EZH2 (IC50)
# Chain of PRC2 containing wt EZH2 (Q15910 whole entry): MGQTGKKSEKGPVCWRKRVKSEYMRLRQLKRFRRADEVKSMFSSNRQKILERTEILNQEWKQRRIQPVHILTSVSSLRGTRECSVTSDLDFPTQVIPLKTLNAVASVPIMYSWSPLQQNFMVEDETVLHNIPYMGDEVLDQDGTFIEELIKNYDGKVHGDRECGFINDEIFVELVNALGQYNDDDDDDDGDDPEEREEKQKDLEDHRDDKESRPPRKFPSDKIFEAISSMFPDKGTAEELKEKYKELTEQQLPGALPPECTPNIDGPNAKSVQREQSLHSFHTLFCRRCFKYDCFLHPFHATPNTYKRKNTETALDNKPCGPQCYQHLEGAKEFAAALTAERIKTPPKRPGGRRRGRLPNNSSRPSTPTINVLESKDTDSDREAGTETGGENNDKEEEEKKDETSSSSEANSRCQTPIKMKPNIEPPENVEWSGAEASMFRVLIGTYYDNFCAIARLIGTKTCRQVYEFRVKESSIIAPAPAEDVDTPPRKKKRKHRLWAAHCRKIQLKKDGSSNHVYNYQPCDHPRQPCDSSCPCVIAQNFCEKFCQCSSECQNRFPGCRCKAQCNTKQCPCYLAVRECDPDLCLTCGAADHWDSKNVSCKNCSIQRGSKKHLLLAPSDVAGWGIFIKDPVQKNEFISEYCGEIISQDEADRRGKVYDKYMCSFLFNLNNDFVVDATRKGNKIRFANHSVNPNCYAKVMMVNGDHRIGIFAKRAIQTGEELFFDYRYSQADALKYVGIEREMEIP
# Chain of PRC2 containing wt EZH2 (O75530 whole entry partner): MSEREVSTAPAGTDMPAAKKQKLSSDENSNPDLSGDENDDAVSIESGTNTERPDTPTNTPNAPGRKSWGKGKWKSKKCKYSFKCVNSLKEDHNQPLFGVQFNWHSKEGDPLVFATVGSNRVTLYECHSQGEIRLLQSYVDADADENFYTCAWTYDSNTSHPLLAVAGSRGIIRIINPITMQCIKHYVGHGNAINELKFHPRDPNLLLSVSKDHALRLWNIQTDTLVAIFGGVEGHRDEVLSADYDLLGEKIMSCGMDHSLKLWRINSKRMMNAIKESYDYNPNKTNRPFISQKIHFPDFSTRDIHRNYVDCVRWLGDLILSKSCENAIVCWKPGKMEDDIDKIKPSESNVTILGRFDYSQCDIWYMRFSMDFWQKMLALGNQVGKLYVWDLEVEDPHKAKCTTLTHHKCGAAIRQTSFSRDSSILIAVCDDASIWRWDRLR
# Chain of PRC2 containing wt EZH2 (Q15022 whole entry partner): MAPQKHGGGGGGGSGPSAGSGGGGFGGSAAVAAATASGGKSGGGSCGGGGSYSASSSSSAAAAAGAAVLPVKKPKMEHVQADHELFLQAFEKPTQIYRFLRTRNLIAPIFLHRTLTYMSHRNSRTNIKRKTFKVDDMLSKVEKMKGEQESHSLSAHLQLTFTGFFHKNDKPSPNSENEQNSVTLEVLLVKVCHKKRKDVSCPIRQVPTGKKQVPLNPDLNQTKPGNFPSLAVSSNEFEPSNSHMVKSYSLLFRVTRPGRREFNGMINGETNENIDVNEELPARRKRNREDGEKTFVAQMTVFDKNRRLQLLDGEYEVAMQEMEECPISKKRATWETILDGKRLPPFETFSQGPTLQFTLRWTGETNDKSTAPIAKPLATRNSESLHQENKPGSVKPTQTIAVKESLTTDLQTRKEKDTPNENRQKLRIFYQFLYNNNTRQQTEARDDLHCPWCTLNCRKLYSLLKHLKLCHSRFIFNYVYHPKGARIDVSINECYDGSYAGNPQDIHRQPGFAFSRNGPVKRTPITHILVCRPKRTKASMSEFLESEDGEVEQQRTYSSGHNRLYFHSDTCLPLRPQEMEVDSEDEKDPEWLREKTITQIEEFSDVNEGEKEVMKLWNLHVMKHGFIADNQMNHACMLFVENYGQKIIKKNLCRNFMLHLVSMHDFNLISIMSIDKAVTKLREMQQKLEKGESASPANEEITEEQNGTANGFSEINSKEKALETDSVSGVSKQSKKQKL
# Chain of PRC2 containing wt EZH2 (Q09028 whole entry partner): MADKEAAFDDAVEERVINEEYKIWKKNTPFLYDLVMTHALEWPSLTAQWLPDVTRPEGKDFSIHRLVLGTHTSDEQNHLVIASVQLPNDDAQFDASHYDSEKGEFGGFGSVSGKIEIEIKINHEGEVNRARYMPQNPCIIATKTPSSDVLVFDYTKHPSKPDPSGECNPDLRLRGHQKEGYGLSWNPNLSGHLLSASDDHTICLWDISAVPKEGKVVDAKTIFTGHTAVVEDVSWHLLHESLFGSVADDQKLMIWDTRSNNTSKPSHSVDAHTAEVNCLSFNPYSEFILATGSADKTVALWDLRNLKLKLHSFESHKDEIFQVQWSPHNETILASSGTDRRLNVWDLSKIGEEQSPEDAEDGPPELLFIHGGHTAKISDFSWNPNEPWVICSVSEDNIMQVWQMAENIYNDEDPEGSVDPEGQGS
# Chain of PRC2 containing wt EZH2 (Q6ZN18 whole entry partner): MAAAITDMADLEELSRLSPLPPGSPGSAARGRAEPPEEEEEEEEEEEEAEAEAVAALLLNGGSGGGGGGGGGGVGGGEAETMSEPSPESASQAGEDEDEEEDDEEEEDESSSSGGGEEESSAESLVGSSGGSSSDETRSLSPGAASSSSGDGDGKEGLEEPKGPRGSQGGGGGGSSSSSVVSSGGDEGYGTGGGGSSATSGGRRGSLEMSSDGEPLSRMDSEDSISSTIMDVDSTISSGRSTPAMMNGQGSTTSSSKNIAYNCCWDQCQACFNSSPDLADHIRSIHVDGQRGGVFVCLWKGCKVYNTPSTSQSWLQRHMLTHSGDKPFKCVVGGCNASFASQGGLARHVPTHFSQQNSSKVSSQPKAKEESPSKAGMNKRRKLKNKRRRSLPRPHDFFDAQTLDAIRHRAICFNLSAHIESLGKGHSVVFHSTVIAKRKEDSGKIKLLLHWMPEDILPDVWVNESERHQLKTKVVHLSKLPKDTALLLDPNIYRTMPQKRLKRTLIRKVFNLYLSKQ
Compound,"IC50 [1, 3]","EC50 ([2]; Homo sapiens, HeLa, 72 h)","IC50 [1, 4]",IC50 ([1]; read-out: EZH2 (IC50); 30 pM PRC2 containing wt EZH2; 3-5 h pre-incubation),EC50 [2]
"CSc1cc(C)[nH]c(=O)c1CNC(=O)c1c(C)n([C@H](C)C2CCN(CC(F)(F)F)CC2)c2cccc(Br)c12 [Example 128, (R)-4-bromo-2-methyl-N-((6-methyl-4-(methylthio)-2-oxo-1,2-dihydropyridin-3-yl)methyl)-1-(1-(1-(2,2,2-trifluoroethyl)piperidin-4-yl)ethyl)-1H-indole-3-carboxamide]",0.5 to 5 nM,10 to 100 nM,,,
"CSc1cc(C)[nH]c(=O)c1CNC(=O)c1c(C)n([C@H](C)C2OCC(NC(C)(C)C)CO2)c2ccccc12 (single isomer, unassigned) [5 (isomer 1)]",,10 to 100 nM,0.5 to 5 nM,,
"COc1cccc2c1c(C(=O)NCc1c(SC)cc(C)[nH]c1=O)c(C)n2[C@H](C)C1CCN(CC(F)(F)F)CC1 [Example 101, (R)-4-methoxy-2-methyl-N-((6-methyl-4-(methylthio)-2-oxo-1,2-dihydropyridin-3-yl)methyl)-1-(1-(1-(2,2,2-trifluoroethyl)piperidin-4-yl)ethyl)-1H-indole-3-carboxamide]",,10 to 100 nM,0.5 to 5 nM,,
"CSc1cc(C)[nH]c(=O)c1CNC(=O)c1c(C)n([C@H](C)C2CCC(N3CC(OC4CC4)C3)CC2)c2ncccc12 (single isomer, unassigned) [Example 30]",,< 10 nM,< 0.5 nM,,
"CSc1cc(C)[nH]c(=O)c1CNC(=O)c1c(C)n([C@H](C)[C@H]2CCN(C3CC3)CC2(F)F)c2ncccc12 (single isomer, unassigned) [70 (isomer 1)]",< 0.5 nM,< 10 nM,,,
"CSc1cc(C)[nH]c(=O)c1CNC(=O)c1c(C)n([C@H](C)C2CCN(C3CC(F)C3)CC2)c2ccccc12 (single isomer, unassigned) [64 (isomer 2)]",,,,< 0.5 nM,10 to 100 nM
"Cc1cc(SC(F)F)c(CNC(=O)c2c(C)n([C@H](C)C3CCN(CC(F)(F)F)CC3)c3ccccc23)c(=O)[nH]1 [Example 105, (R)-N-((4-((difluoromethyl)thio)-6-methyl-2-oxo-1,2-dihydropyridin-3-yl)methyl)-2-methyl-1-(1-(1-(2,2,2-trifluoroethyl)piperidin-4-yl)ethyl)-1H-indole-3-carboxamide]",,10 to 100 nM,0.5 to 5 nM,,
"CCOC[C@@H](C)n1c(C)c(C(=O)NCc2c(SC)cc(C)[nH]c2=O)c2ccccc21 [Example 33, (R)-1-(1-ethoxypropan-2-yl)-2-methyl-N-((6-methyl-4-(methylthio)-2-oxo-1,2-dihydropyridin-3-yl)methyl)-1H-indole-3-carboxamide]",0.5 to 5 nM,10 to 100 nM,,,
"CSc1cc(C)[nH]c(=O)c1CNC(=O)c1c(C)n([C@H](C)C2CCC(C)(O)CC2)c2ccccc12 (single isomer, unassigned) [22 (isomer 1)]",< 0.5 nM,< 10 nM,,,
"CSc1cc(C)[nH]c(=O)c1CNC(=O)c1c(C)n([C@H](C)C2CCC(N3CCOCC3)CC2)c2ccccc12 (single isomer, unassigned) [75 (isomer 1)]",< 0.5 nM,10 to 100 nM,,,
"CSc1cc(C)[nH]c(=O)c1CNC(=O)c1c(C)n([C@H](C)C2CCC(NC3(CF)COC3)CC2)c2ncncc12 (single isomer, unassigned) [156 (isomer 2)]",,,< 0.5 nM,,10 to 100 nM
"CSc1cc(C)[nH]c(=O)c1CNC(=O)c1c(C)n([C@H](C)C2CCC(N3CC(F)C3)CC2)c2ncccc12 (stereo partly drawn) [Example 65, 1-((R)-1-(4-(3-fluoroazetidin-1-yl)cyclohexyl)ethyl)-2-methyl-N-((6-methyl-4-(methylthio)-2-oxo-1,2-dihydropyridin-3-yl)methyl)-1H-pyrrolo[2,3-b]pyridine-3-carboxamide]",< 0.5 nM,< 10 nM,,,
"CSc1cc(C)[nH]c(=O)c1CNC(=O)c1c(C)n([C@H](C)C2CCC(N3CC(F)(C4CC4)C3)CC2)c2ncccc12 (stereo partly drawn) [Example 157, 1-((R)-1-(4-(3-cyclopropyl-3-fluoroazetidin-1-yl)cyclohexyl)ethyl)-2-methyl-N-((6-methyl-4-(methylthio)-2-oxo-1,2-dihydropyridin-3-yl)methyl)-1H-pyrrolo[2,3-b]pyridine-3-carboxamide]",,10 to 100 nM,< 0.5 nM,,
"CSc1cc(C)[nH]c(=O)c1CNC(=O)c1c(C)n([C@H](C)C23CC(N(C)CC(F)(F)F)(C2)C3)c2ccccc12 [Example 10, (R)-2-methyl-1-(1-(3-(methyl(2,2,2-trifluoroethyl)amino)bicyclo[1.1.1]pentan-1-yl)ethyl)-N-((6-methyl-4-(methylthio)-2-oxo-1,2-dihydropyridin-3-yl)methyl)-1H-indole-3-carboxamide]",,< 10 nM,< 0.5 nM,,
"CSc1cc(C)[nH]c(=O)c1CNC(=O)c1c(C)n([C@H](C)C2CCN(C#N)CC2)c2ccccc12 [Example 39, (R)-1-(1-(1-cyanopiperidin-4-yl)ethyl)-2-methyl-N-((6-methyl-4-(methylthio)-2-oxo-1,2-dihydropyridin-3-yl)methyl)-1H-indole-3-carboxamide]",< 0.5 nM,10 to 100 nM,,,
"CSc1cc(C)[nH]c(=O)c1CNC(=O)c1c(C)n([C@H](C)C2CCC(NC3(C(F)(F)F)COC3)CC2)c2ncccc12 (single isomer, unassigned) [163 (isomer 1)]",,< 10 nM,< 0.5 nM,,
"COC1CCC([C@@H](C)n2c(C)c(C(=O)NCc3c(SC)cc(C)[nH]c3=O)c3ccccc32)CC1 (single isomer, unassigned) [18 (isomer 1)]",< 0.5 nM,< 10 nM,,,
"CSc1cc(C)[nH]c(=O)c1CNC(=O)c1c(C)n([C@H](C)[C@H]2CC[C@H](NC3(C)COC3)CC2)c2ccccc12 (single isomer, unassigned) [1 (isomer 2)]",,,< 0.5 nM,,10 to 100 nM
"CSc1cc(C)[nH]c(=O)c1CNC(=O)c1c(C)n([C@H](C)C2CCC(N3CCOC3=O)CC2)c2ccccc12 (stereo partly drawn) [Example 74, 2-methyl-N-((6-methyl-4-(methylthio)-2-oxo-1,2-dihydropyridin-3-yl)methyl)-1-((R)-1-(4-(2-oxooxazolidin-3-yl)cyclohexyl)ethyl)-1H-indole-3-carboxamide]",,10 to 100 nM,< 0.5 nM,,
"CSc1cc(C)[nH]c(=O)c1CNC(=O)c1c(C)n([C@H](C)C2CCN(CC(F)(F)F)CC2)c2cccc(Cl)c12 [Example 103, (R)-4-chloro-2-methyl-N-((6-methyl-4-(methylthio)-2-oxo-1,2-dihydropyridin-3-yl)methyl)-1-(1-(1-(2,2,2-trifluoroethyl)piperidin-4-yl)ethyl)-1H-indole-3-carboxamide]",< 0.5 nM,< 10 nM,,,
